Data reported in patent US4157400A, “Terpenophenoxyalkylamines and pharmaceutical compositions and uses thereof” (MAR-PHA, Societe d'Etude et d'Exploitation de Marques, priority 1976, dated 1979).
Values after ≈ are worked out from the molar mass of the structure shown.

Tests used:
[1] = Acute toxicity in the mouse (LD50); conditions: in vivo, male CD1 mouse, 3 days observation
Procedure: Acute toxicities of the compounds according to the invention have been determined in the male mouse CD1 (Charles RIVER) both intravenously and orally. The LD50 were calculated after observation for 3 days by the method of REED, JJ. and MUENCH, H. (Am. J. Hy, 27 493, 1938).

[2] = system: removed duodenum of the rat, spasms induced by barium chloride; assay: Spasmolytic activity on the detached duodenum of the rat, musculotrope (versus BaCl2; Magnus)
Description: (§1) The spasmolytic neurotropes inhibit the contractions of the organ caused by acetylcholine,whereas the musculotropes prevent the spasms induced by barium chloride. The following table summarises the results expressed as a 50% effective concentration (EC50) in mg/l.

rabbit's heart = assay: Coronaro-dilatory activity on the isolated rabbit heart (technique derived from Langendorff)
Procedure: In this technique, the survival liquid perfusing the heart contains 0.5 I.U./l post-hypophysis intended for permanently maintaining a slight vaso-constriction of the coronary vascular system. The products to be studied are administered in the region of the aortic canal in a volume of 1 cm^3 over a period of 1 minute. The results are expressed as a percentage variation of the coronary output after the injection of the product with respect to the initial output, the output being measured by integration of the frequency of drops of survival liquid escaping from the heart after having passed through the coronary system.

[3] = system: tachycardia induced by isoproterenol; assay: Beta-sympatholytic activity: antagonism of isoproterenol-induced tachycardia in the non-anesthetized rabbit; assay type: in vivo; conditions: for Maximum Inhibition of tachycardia (as a %): isoproterenol 0.010 mg/kg i.v.
Procedure: The technique consists of evaluating the antagonism exerted by the products with regard to induced tachycardia, in an alert rabbit, by a sympatho-stimulant agent, isoproterenol, administered in a dose of 0.010 mg/kg intravenously. The animal is placed in a restraining box and the marginal vein of the ear is catheterized. The animal's electrocardiogram is picked up by two electrodes implanted in shunt DII and connected to a telemetric transmitter. A polygraph, coupled to a receiver, simultaneously records the electrocardiogram and the cardiac rhythm by integration of the waves R.
First of all, one makes certain of the stability and reproducibility of isoprenalinic tachycardia and the substance to be studied is administered. In the case of intravenous administration of the products, the injections of isoproterenol are then repeated 5 minutes later, then every 15 minutes, until the tachycardia returns to its initial intensity. When the products are administered orally, the injections of the beta-stimulant are repeated 15, 30, 45 and 60 minutes, then 2, 3, 5, 24 and 48 hours afterwards.
The beta-sympatholytic activity is expressed by the maximum percentage decrease of the tachycardia induced by isoproterenol. The total duration of the effect is also noted.

[4] = system: removed duodenum of the rat, contractions caused by acetylcholine; assay: Spasmolytic activity on the detached duodenum of the rat, neurotrope (versus acetylcholine; Magnus)
Description: as §1

SMILES	LD50 at 72 h ([1]; iv, intravenously) [mg/kg]	LD50 at 72 h ([1]; po, orally) [mg/kg]	EC50 [2] [µg/mL]	Duration of Inhibiting effect ([3]; intravenous dose 0.5 mg/kg)	Maximum Inhibition of tachycardia (as a %) ([3]; intravenous dose 0.5 mg/kg) [%]	Duration of Inhibiting effect ([3]; intravenous dose 1 mg/kg)	Maximum Inhibition of tachycardia (as a %) ([3]; intravenous dose 1 mg/kg) [%]	Duration of Inhibiting effect ([3]; oral dose 17.5 mg/kg)	Maximum Inhibition of tachycardia (as a %) ([3]; oral dose 17.5 mg/kg) [%]	Duration of Inhibiting effect ([3]; oral dose 35 mg/kg)	Maximum Inhibition of tachycardia (as a %) ([3]; oral dose 35 mg/kg) [%]	Duration of Inhibiting effect ([3]; oral dose 75 mg/kg)	Maximum Inhibition of tachycardia (as a %) ([3]; oral dose 75 mg/kg) [%]	Duration of Inhibiting effect ([3]; oral dose 150 mg/kg)	Maximum Inhibition of tachycardia (as a %) ([3]; oral dose 150 mg/kg) [%]	EC50 [4] [µg/mL]	also measured
CC(C)NCC(O)COc1ccccc1[C@@H]1C[C@H]2CC[C@@H]1C2 (relative stereo) [Example 1, 1-isopropylamino-3-[2-(2-norbornyl exo)phenoxy]propan-2-ol]	60	800	0.15 (≈ 0.494 µM)	more than 2 hrs	54	more than 2 hrs	86	approx. 24 hrs	73	approx. 48 hrs	88	approx. 48 hrs	80	more than 48 hrs	82	0.18 (≈ 0.593 µM)	activation at 0.003 µg/mL (rabbit's heart; Oryctolagus cuniculus, dose 0.003 mg/l, increase (+) versus initial output, post-hypophysis 0.5 I.U./l, read-out: % Variation of coronary output): 13%; activation at 0.01 µg/mL (rabbit's heart; Oryctolagus cuniculus, dose 0.010 mg/l, increase (+) versus initial output, post-hypophysis 0.5 I.U./l, read-out: % Variation of coronary output): 57%; activation at 0.03 µg/mL (rabbit's heart; Oryctolagus cuniculus, dose 0.030 mg/l, increase (+) versus initial output, post-hypophysis 0.5 I.U./l, read-out: % Variation of coronary output): 133%; activation at 0.1 µg/mL (rabbit's heart; Oryctolagus cuniculus, dose 0.100 mg/l, increase (+) versus initial output, post-hypophysis 0.5 I.U./l, read-out: % Variation of coronary output): 225%; Duration of the effect (rabbit's heart; dose 0.003 mg/l): 3 min; Duration of the effect (rabbit's heart; dose 0.010 mg/l): 3 min; Duration of the effect (rabbit's heart; dose 0.030 mg/l): 15 min; Duration of the effect (rabbit's heart; dose 0.100 mg/l): 9 min; coronaro-dilatory effects (in words) (rabbit's heart; isolated rabbit heart): considerable coronaro-dilatory effects, whose intensity and duration clearly increase with the concentration; Duration of Inhibiting effect ([3]; intravenous dose 0.1 mg/kg): approx. 50 minutes; Maximum Inhibition of tachycardia (as a %) ([3]; intravenous dose 0.1 mg/kg): 24%; Duration of Inhibiting effect ([3]; intravenous dose 0.3 mg/kg): approx 21/2; Maximum Inhibition of tachycardia (as a %) ([3]; intravenous dose 0.3 mg/kg): 67%; Duration of Inhibiting effect ([3]; oral dose 9 mg/kg): more than 3 hrs; Maximum Inhibition of tachycardia (as a %) ([3]; oral dose 9 mg/kg): 40%
CC(C)NCC(O)COc1ccccc1[C@H]1C[C@H]2CC[C@@H]1C2 (relative stereo) [Example 2, 1-isopropylamino-3-[2-(2-norbornyl endo)phenoxy]propan-2-ol]	62	675	0.04 (≈ 0.132 µM)	approx. 40 mins	20	approx. 4 hrs	67	approx. 24 hrs	64	approx. 48 hrs	60	approx. 48 hrs	80	approx. 48 hrs	81	0.3 (≈ 0.989 µM)	
